US12370239B2, “Microvascular blood flow decreasing agent and use thereof” (priority 2016, dated 2025)
“Also recorded” adds a separate entry of the source.

Legend:
Format in all cases: in vivo, human
[1] = test system: microvasculature; assay: Contrast imaging of microvascular blood flow / vessel density after infusion
Experimental: When it is used for decreasing microvascular blood flow according to the present invention, the dose of the immune checkpoint inhibitor to be administered will vary depending on the type of the immune checkpoint inhibitor to be administered, though a skilled person can calculate an appropriate amount.
It was shown that each of the immune checkpoint inhibitors causes a clear change in tumor hemodynamics by single-agent administration 2 to 3 minutes after the infusion from the tumor vessel. Moreover, an immediate relief from cancerous pain by administration is also confirmed. Adding to these, their original effect of inhibiting immune checkpoint can also be expected, providing a prospective of relatively longer lasting effect by administration of single agent.
In all cases, fat suppression T2-weighted MRI image was obtained before treatment to select target vessels. 3Fr intraarterial-indwelling sheath (Medikit Co., Ltd.) was inserted from femoral artery by Seldinger method, allowed to reach the target vessel using 3Fr angiography catheter (Medikit Co., Ltd.), Radifocus 0.032″ external diameter guide wire (TERUMO Corp.), and microcatheter ASAHI Tellus C3, ASAHI Meister 0.016″ micro guide wire (ASAHI INTECC Co., Ltd.) as appropriate, then abnormal vascular networks are identified by contrast imaging. […]

[2] = test system: BCR-ABL mRNA; assay: % IS of BCR-ABL mRNA, marker for chronic myeloid leukemia, before and after endovascular therapy; details: Patient D, after endovascular therapy for bladder cancer (time point 2 to 3, FIG. 4)
Experimental: (§1) This patient was subjected to an endovascular therapy using nivolumab 10 mg, bortezomib 0.7 mg, etanercept 25 mg, maxacalcitol 10 μg, and thrombomodulin 3200 U, and was marked as CR by such treatment. […] FIG. 4 is a graph showing the transition of % IS of BCR-ABL mRNA before and after the endovascular therapy for the […] in this patient.

[3] = test system: tumor; assay: Endovascular therapy case reports, tumor response (Example 3); design: key: CR indicates an elimination of tumor from the imaging; PR indicates >50% reduction of tumor diameter; MR indicates >30% reduction of tumor diameter; NC indicates <30% reduction of tumor diameter; PD indicates an increase in tumor diameter
Experimental: Short-term tumor-reducing effect in 1 month after the administration was assessed by MRI or CT imaging. In the table, CR indicates an elimination of tumor from the imaging, PR indicates >50% reduction of tumor diameter, MR indicates >30% reduction of tumor diameter, NC indicates <30% reduction of tumor diameter, and PD indicates an increase in tumor diameter.
To Patient A who had suffered from breast cancer, an endovascular therapy was carried out using nivolumab 10 mg, pertuzumab 60 mg, bortezomib 0.7 mg, thrombomodulin 3200 U and maxacalcitol 10 μg. This patient was marked as CR by such treatment.
To Patient B who had suffered from malignant fibrous histiocytoma in right femur, an endovascular therapy was carried out using 20 mg of nivolumab. This patient was marked as CR after 3 treatments using 20 mg of nivolumab per each administration.
To Patience C who had suffered from hepatitis C and had developed liver cancer, an endovascular therapy was carried out using nivolumab 10 mg, bortezomib 0.7 mg, etanercept 25 mg, maxacalcitol 10 μg and imipenem/cilastatin sodium 500 mg/body for each administration. This patient was marked as CR after two treatments.
as §1

[4] = test system: blood vessels at a site having prolonged pain; assay: Endovascular therapy to blood vessels at a site having prolonged pain, symptom improvement and side effects (Example 4); design: key to Effect (improvement in symptoms): an exacerbation in symptom=0; no change=1; an improvement in symptom and easiness in dairy living=2; almost satisfactory improvement=3; Side effect: scale not given here
Experimental: To 14 subject cases indicated in the table below who had blood vessels at a site having prolonged pain, endovascular therapy was carried out as follows, using pembrolizumab.
In all cases, fat suppression T2-weighted MRI image was obtained before treatment to select target vessels. 3Fr intraarterial-indwelling sheath (Medikit Co., Ltd.) was inserted from femoral artery by Seldinger method, allowed to reach the target vessel using 3Fr angiography catheter (Medikit Co., Ltd.), Radifocus 0.032″ external diameter guide wire (TERUMO Corp.), and microcatheter ASAHI Tellus C3, ASAHI Meister 0.016″ micro guide wire (ASAHI INTECC Co., Ltd.) as appropriate, then abnormal vascular networks are identified by contrast imaging.
Subsequently, as shown in the table, pembrolizumab 1 to 4 mg/body (mean=1.86 mg/body, median=2 mg/body) was mixed with the combined drugs in 100 ml of physiological saline, stirred with a stirrer while being infused into the target vessel in an amount such that a sufficient decrease in abnormal vessel density was confirmed.
The level of post-treatment improvement in symptoms was assessed after 3 weeks or longer. A stepwise assessment was done as follows: an exacerbation in symptom=0, no change=1, an improvement in symptom and easiness in dairy living=2, almost satisfactory improvement=3.

## ipilimumab
[1]; by itself, injection into nutrient artery
  tumor vessel density-decreasing effect: strong tumor vessel density-decreasing effect

## nivolumab
[2]
  % IS of BCR-ABL mRNA: decreased
[3]; Patient A, breast cancer, nivolumab 10 mg with pertuzumab 60 mg, bortezomib 0.7 mg, thrombomodulin 3200 U, maxacalcitol 10 μg
  tumor response: CR
[3]; Patient B, malignant fibrous histiocytoma in right femur (metastasis to lung), after 3 treatments, 20 mg of nivolumab per administration
  tumor response: CR
[3]; Patient C, liver cancer (hepatitis C), stage II, after two treatments, nivolumab 10 mg with bortezomib 0.7 mg, etanercept 25 mg, maxacalcitol 10 μg, imipenem/cilastatin sodium 500 mg/body
  tumor response: CR
[3]; Patient D, bladder cancer (chronic myeloid leukemia), stage II, nivolumab 10 mg with bortezomib 0.7 mg, etanercept 25 mg, maxacalcitol 10 μg, thrombomodulin 3200 U
  tumor response: CR

## pembrolizumab
[4]; Case 1, Left gonarthritis, P 1 mg/body + imp/cs 500, bv 50, bort 0.35, maxa 10
  Side effect: 0
[4]; Case 1, Left gonarthritis, P 1 mg/body + imp/cs 500, bv 50, bort 0.35, maxa 10, after 3 weeks or longer
  Effect (improvement in symptoms): 1
[4]; Case 2, Elbow joint RA 5 y, P 4 mg/body + eta 25, bort 0.35, imp/cs 500, after 3 weeks or longer
  Effect (improvement in symptoms): 3
[4]; Case 2, Elbow joint RA, P 4 mg/body + eta 25, bort 0.35, imp/cs 500
  Side effect: 0
[4]; Case 3, Hip osteoarthritis 5 y, P 3 mg/body + eta 25, bort 0.35, maxa 10, imp/cs 501, after 3 weeks or longer
  Effect (improvement in symptoms): 3
[4]; Case 3, Hip osteoarthritis, P 3 mg/body + eta 25, bort 0.35, maxa 10, imp/cs 501
  Side effect: 0
[4]; Case 4, Left shoulder pain, P 3 mg/body + bort 0.35
  Side effect: 0
[4]; Case 4, Left shoulder pain, P 3 mg/body + bort 0.35, after 3 weeks or longer
  Effect (improvement in symptoms): 3
[4]; Case 5, Lumbar spinal stenosis 5 y, P 2 mg/body + bort 0.36, after 3 weeks or longer
  Effect (improvement in symptoms): 2
[4]; Case 5, Lumbar spinal stenosis, P 2 mg/body + bort 0.36
  Side effect: 0
[4]; Case 6, Right foot Lisfranc joint injury, P 1 mg/body + bv 50, bort 0.35, eta 25, maxa 10
  Side effect: 0
[4]; Case 6, Right foot Lisfranc joint injury, P 1 mg/body + bv 50, bort 0.35, eta 25, maxa 10, after 3 weeks or longer
  Effect (improvement in symptoms): 3
[4]; Case 7, Low back pain after spinal compression fracture 1.5 y, P 1 mg/body + bort 0.35, eta 25, maxa 10, reco 3200, after 3 weeks or longer
  Effect (improvement in symptoms): 2
[4]; Case 7, Low back pain after spinal compression fracture, P 1 mg/body + bort 0.35, eta 25, maxa 10, reco 3200
  Side effect: 0
[4]; Case 8, Right knee RA 3.8 y, P 2 mg/body + bort 0.35, eta 25, reco 3200, after 3 weeks or longer
  Effect (improvement in symptoms): 2
[4]; Case 8, Right knee RA, P 2 mg/body + bort 0.35, eta 25, reco 3200
  Side effect: 0
[4]; Case 9, Bilateral knee joint replacement postoperation 1.5 y, P 2 mg/body + eta 25, imp/cs 500, after 3 weeks or longer
  Effect (improvement in symptoms): 1
[4]; Case 9, Bilateral knee joint replacement postoperation, P 2 mg/body + eta 25, imp/cs 500
  Side effect: 0
[4]; Case 10, Piriformis syndrome, P 1 mg/body + bort 0.35, eta 25, reco 3200
  Side effect: 0
[4]; Case 10, Piriformis syndrome, P 1 mg/body + bort 0.35, eta 25, reco 3200, after 3 weeks or longer
  Effect (improvement in symptoms): 2
[4]; Case 11, Left Achilles peritendinitis, P 1 mg/body
  Side effect: 0
[4]; Case 11, Left Achilles peritendinitis, P 1 mg/body, no combined drug printed, after 3 weeks or longer
  Effect (improvement in symptoms): 3
[4]; Case 12, Bilateral gonarthrosis, P 2 mg/body
  Side effect: 0
[4]; Case 12, Bilateral gonarthrosis, P 2 mg/body, no combined drug printed, after 3 weeks or longer
  Effect (improvement in symptoms): 2
[4]; Case 13, Left gonarthrosis, foot arthritis, P 2 mg/body
  Side effect: 0
[4]; Case 13, Left gonarthrosis, foot arthritis, P 2 mg/body, no combined drug printed, after 3 weeks or longer
  Effect (improvement in symptoms): 1
[4]; Case 14, Right foot joint MFP syndrome, P 1 mg/body
  Side effect: 0
[4]; Case 14, Right foot joint MFP syndrome, P 1 mg/body, no combined drug printed, after 3 weeks or longer
  Effect (improvement in symptoms): 2
[4]; all 14 cases, including minor side effects such as transient fever
  side effects considered to be caused by the therapy: No side effect; also recorded: without any side effects
[4]; out of 14 cases, pembrolizumab 1 to 4 mg/body into target vessel, after 3 weeks or longer
  cases with rating of 2 or more (improvement in symptom): 11
[4]; selective arterial infusion to the site of pain, 1 to 2 mg/body, diluted at 1 to 2% in physiological saline
  chronic pain: cancellation of chronic pain
[1]; Cases 7 and 8, 2 minutes after drug administration (FIGS. 5 and 6)
  abnormal microvascular density: significant decrease in abnormal microvascular density
